Results as given in patent US20200361914A1, “SUBSTITUTED BENZENE AND 6,5-FUSED BICYCLIC HETEROARYL COMPOUNDS” (Epizyme, Inc., priority 2014, published 2020).
Read-outs that look alike come from different tables or passages of the source.

How the values were obtained:
[1] = biological target: Y641 mutant PRC2 enzyme (EZH2 Y641) (Homo sapiens, UniProt Q15910, Y641F); assay: PRC2 enzyme assay on peptide substrate, Y641 mutant EZH2
Excerpt: (§1) S-adenosylmethionine (SAM), S-adenosylhomocyteine (SAH), bicine, KCl, Tween20, dimethylsulfoxide (DMSO) and bovine skin gelatin (BSG) can be purchased from Sigma-Aldrich at the highest level of purity possible. Dithiothreitol (DTT) was purchased from EMD. ^3H-SAM can be purchased from American Radiolabeled Chemicals with a specific activity of 80 C1/mmol. 384-well streptavidin Flashplates can be purchased from PerkinElmer.
(§2) Recombinant PRC2 Enzymes. Human PRC2 enzymes are purified as 4-component enzyme complexes co-expressed in Spodoptera frugiperda (sf9) cells using a baculovirus expression system. […] The EED subunit contains an N-terminal FLAG tag that is used to purify the entire 4-component complex from sf9 cell lysates. The purity of the complexes meets or exceeds 95% as determined by SDS-PAGE and Agilent Bioanalyzer analysis.
(§3) General Procedure for PRC2 Enzyme Assays on Peptide Substrates. The assays are all performed in a buffer consisting of 20 mM bicine (pH=7.6), 0.5 mM DTT, 0.005% BSG and 0.002% Tween20, prepared on the day of use. […] DMSO (1 μL) is added to columns 11, 12, 23, 24, rows A-H for the maximum signal control, and SAH, a known product and inhibitor of PRC2 (1 μL) is added to columns 11, 12, 23, 24, rows I-P for the minimum signal control. A cocktail (40 μL) containing the wild-type PRC2 enzyme and H3K27me0 peptide or any of the Y641 mutant enzymes and H3K27me2 peptide is added by Multidrop Combi (Thermo). The compounds are allowed to incubate with PRC2 for 30 min at 25° C., then a cocktail (10 μL) containing a mixture of non-radioactive and ^3H-SAM is added to initiate the reaction (final volume=51 μL). […] The assays are stopped by the addition of non-radioactive SAM (10 μL) to a final concentration of 600 μM, which dilutes the ^3H-SAM to a level where its incorporation into the peptide substrate is no longer detectable. 50 μL of the reaction in the 384-well polypropylene plate is then transferred to a 384-well Flashplate and the biotinylated peptides are allowed to bind to the streptavidin surface for at least 1h before being washed three times with 0.1% Tween20 in a Biotek ELx405 plate washer. The plates are then read in a PerkinElmer TopCount platereader to measure the quantity of ^3H-labeled peptide bound to the Flashplate surface, measured as disintegrations per minute (dpm) or alternatively, referred to as counts per minute (cpm).
(§4) Where dpm=disintegrations per minute, cmpd=signal in assay well, and min and max are the respective minimum and maximum signal controls.
(§5) Where top and bottom are the normally allowed to float, but may be fixed at 100 or 0 respectively in a 3-parameter fit. The Hill Coefficient normally allowed to float but may also be fixed at 1 in a 3-parameter fit. Y is the % inhibition and X is the compound concentration.

[2] = biological target: wild-type PRC2 enzyme (EZH2 WT) (Homo sapiens, UniProt Q15910); assay: PRC2 enzyme assay on peptide substrate, wild-type EZH2
Chain of wild-type PRC2 enzyme (EZH2 WT) (Q15910 whole entry): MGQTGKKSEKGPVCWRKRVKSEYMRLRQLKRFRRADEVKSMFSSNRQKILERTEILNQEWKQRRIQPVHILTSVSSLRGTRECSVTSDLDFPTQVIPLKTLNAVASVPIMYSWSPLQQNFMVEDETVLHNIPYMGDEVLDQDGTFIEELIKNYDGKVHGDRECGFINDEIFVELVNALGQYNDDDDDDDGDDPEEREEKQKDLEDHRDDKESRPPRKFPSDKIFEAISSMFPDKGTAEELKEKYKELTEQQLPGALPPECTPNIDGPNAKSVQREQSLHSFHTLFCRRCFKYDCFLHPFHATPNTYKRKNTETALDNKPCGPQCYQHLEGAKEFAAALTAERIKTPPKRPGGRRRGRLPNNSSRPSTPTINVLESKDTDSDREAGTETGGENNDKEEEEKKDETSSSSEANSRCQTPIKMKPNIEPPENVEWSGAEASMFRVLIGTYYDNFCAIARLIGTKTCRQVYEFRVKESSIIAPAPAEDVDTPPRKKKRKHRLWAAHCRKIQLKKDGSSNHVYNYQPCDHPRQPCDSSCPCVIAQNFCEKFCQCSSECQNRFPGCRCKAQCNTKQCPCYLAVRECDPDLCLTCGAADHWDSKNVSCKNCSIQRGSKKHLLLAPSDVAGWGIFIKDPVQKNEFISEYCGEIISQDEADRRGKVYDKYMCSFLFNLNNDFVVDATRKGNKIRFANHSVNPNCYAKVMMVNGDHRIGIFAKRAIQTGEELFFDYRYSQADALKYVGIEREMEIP
Chain of wild-type PRC2 enzyme (EZH2 WT) (O75530 whole entry partner): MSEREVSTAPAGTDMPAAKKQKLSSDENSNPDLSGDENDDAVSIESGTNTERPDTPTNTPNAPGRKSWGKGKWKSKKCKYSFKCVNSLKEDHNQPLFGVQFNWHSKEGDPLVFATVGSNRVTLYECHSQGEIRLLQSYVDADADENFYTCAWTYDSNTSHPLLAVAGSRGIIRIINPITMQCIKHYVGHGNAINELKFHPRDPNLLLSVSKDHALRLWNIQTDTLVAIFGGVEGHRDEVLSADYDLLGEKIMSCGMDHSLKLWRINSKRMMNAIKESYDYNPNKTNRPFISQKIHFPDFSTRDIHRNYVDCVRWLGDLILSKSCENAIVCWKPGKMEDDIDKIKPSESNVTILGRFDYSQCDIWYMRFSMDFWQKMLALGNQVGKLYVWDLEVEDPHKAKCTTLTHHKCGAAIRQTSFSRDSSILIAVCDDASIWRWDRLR
Chain of wild-type PRC2 enzyme (EZH2 WT) (Q15022 whole entry partner): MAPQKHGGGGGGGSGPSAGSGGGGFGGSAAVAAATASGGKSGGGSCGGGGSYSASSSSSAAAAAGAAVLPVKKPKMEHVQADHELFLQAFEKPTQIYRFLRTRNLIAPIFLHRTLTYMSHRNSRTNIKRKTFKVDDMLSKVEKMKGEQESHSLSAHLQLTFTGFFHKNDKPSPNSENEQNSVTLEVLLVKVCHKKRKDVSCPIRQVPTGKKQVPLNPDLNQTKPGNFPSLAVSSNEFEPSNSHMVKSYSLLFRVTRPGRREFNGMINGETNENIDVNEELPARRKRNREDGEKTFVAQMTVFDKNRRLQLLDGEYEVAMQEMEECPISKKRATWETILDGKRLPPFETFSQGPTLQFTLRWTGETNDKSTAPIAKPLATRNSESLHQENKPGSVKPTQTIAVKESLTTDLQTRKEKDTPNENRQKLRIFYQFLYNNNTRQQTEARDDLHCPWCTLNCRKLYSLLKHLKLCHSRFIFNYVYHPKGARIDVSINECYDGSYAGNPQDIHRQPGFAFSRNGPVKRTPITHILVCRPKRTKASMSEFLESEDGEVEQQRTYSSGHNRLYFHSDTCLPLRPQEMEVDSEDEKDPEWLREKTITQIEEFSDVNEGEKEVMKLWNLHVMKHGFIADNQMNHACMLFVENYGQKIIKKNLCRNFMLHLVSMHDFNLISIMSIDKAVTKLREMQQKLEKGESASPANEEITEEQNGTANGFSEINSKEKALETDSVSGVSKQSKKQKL
Chain of wild-type PRC2 enzyme (EZH2 WT) (Q09028 whole entry partner): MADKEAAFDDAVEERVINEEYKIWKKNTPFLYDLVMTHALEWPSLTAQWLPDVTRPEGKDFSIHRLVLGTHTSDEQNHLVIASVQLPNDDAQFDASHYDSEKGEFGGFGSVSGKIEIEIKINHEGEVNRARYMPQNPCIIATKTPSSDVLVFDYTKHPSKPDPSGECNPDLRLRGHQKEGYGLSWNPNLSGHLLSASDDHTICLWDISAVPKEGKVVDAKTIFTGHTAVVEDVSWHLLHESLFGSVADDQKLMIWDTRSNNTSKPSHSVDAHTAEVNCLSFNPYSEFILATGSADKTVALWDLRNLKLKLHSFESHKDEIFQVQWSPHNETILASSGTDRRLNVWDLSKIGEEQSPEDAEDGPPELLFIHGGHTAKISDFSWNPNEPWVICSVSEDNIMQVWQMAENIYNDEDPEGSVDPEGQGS
Excerpt: as §1, §2, §3, §4, §5

[3] = EZH2 Y641 IC50 (μM), Y641 mutant EZH2 such as Y641F, H3K27me2 peptide substrate
[4] = EZH2 WT IC50 (μM), wild-type PRC2 enzyme, H3K27me0 peptide substrate

Chain of Y641 mutant PRC2 enzyme (EZH2 Y641) (Q15910 whole entry Y641F): as the sequence (Q15910 whole entry) above, with Y641F counted along it
Chain of Y641 mutant PRC2 enzyme (EZH2 Y641) (O75530 whole entry partner): as the sequence (O75530 whole entry partner) above
Chain of Y641 mutant PRC2 enzyme (EZH2 Y641) (Q15022 whole entry partner): as the sequence (Q15022 whole entry partner) above
Chain of Y641 mutant PRC2 enzyme (EZH2 Y641) (Q09028 whole entry partner): as the sequence (Q09028 whole entry partner) above

Row | Structure (SMILES) | IC50 [1] | IC50 [2] | IC50 [1, 3] | IC50 [2, 4]
1 | COc1c(CNC(=O)c2ccc(C(C)Oc3ccccc3)c(Cl)c2)c(C)nn1C (stereo not drawn) [compound 2, 3-chloro-N-((5-methoxy-1,3-dimethyl-1H-pyrazol-4-yl)methyl)-4-(1-phenoxyethyl)benzamide] | > 50 µM | > 50 µM | – | –
2 | Cc1[nH]n(C)c(=O)c1CNC(=O)c1ccc(C(C)Oc2ccccc2)c(Cl)c1 (stereo not drawn) [compound 3, 3-chloro-N-((2,5-dimethyl-3-oxo-2,3-dihydro-1H-pyrazol-4-yl)methyl)-4-(1-phenoxyethyl)benzamide] | > 50 µM | > 50 µM | – | –
3 | Cc1c(CNC(=O)c2ccc(C(C)Oc3ccccc3)c(Cl)c2)c(=O)[nH]n1C (stereo not drawn) [compound 4, 3-chloro-N-((1,5-dimethyl-3-oxo-2,3-dihydro-1H-pyrazol-4-yl)methyl)-4-(1-phenoxyethyl)benzamide] | > 50 µM | > 50 µM | – | –
4 | COc1c(CNC(=O)c2ccc(C(C)Oc3ccccc3)cc2C)c(C)nn1C (stereo not drawn) [compound 7, N-((5-methoxy-1,3-dimethyl-1H-pyrazol-4-yl)methyl)-2-methyl-4-(1-phenoxyethyl)benzamide] | > 50 µM | > 50 µM | – | –
5 | Cc1cc(C(C)Oc2ccccc2)ccc1C(=O)NCc1c(C)n(C)[nH]c1=O (stereo not drawn) [compound 8, N-((1,5-dimethyl-3-oxo-2,3-dihydro-1H-pyrazol-4-yl)methyl)-2-methyl-4-(1-phenoxyethyl)benzamide] | > 50 µM | > 50 µM | – | –
6 | COc1nn(C)c(C)c1CNC(=O)c1cc(Cl)c(C(C)Oc2ccccc2)cc1C (stereo not drawn) [compound 9, 5-chloro-N-((3-methoxy-1,5-dimethyl-1H-pyrazol-4-yl)methyl)-2-methyl-4-(1-phenoxyethyl)benzamide] | > 50 µM | > 50 µM | – | –
7 | Cc1cc(C(C)Oc2ccccc2)c(Cl)cc1C(=O)NCc1c(C)n(C)[nH]c1=O (stereo not drawn) [compound 10, 5-chloro-N-((1,5-dimethyl-3-oxo-2,3-dihydro-1H-pyrazol-4-yl)methyl)-2-methyl-4-(1-phenoxyethyl)benzamide] | 10 to 50 µM | 10 to 50 µM | – | –
8 | Cc1cc(=O)c(CNC(=O)c2cc(Cl)c(C(C)Oc3ccccc3)cc2C)c(C)[nH]1 (stereo not drawn) [compound 11, 5-chloro-N-((2,6-dimethyl-4-oxo-1,4-dihydropyridin-3-yl)methyl)-2-methyl-4-(1-phenoxyethyl)benzamide] | 1 to 10 µM | 10 to 50 µM | – | –
9 | Cc1cc(=O)c(CNC(=O)c2ccc(Oc3cccc(-c4ccnnc4)c3C#N)c(Cl)c2)c(C)[nH]1 [compound 13, 3-chloro-4-(2-cyano-3-(pyridazin-4-yl)phenoxy)-N-((2,6-dimethyl-4-oxo-1,4-dihydropyridin-3-yl)methyl)benzamide] | 1 to 10 µM | 10 to 50 µM | – | –
10 | COc1nn(C)c(C)c1CNC(=O)c1ccc(Oc2cccc(-c3ccnnc3)c2C#N)c(Cl)c1 [compound 14, 3-chloro-4-(2-cyano-3-(pyridazin-4-yl)phenoxy)-N-((3-methoxy-1,5-dimethyl-1H-pyrazol-4-yl)methyl)benzamide] | > 50 µM | > 50 µM | – | –
11 | Cc1c(CNC(=O)c2ccc(Oc3cccc(-c4ccnnc4)c3C#N)c(Cl)c2)c(=O)[nH]n1C [compound 15, 3-chloro-4-(2-cyano-3-(pyridazin-4-yl)phenoxy)-N-((1,5-dimethyl-3-oxo-2,3-dihydro-1H-pyrazol-4-yl)methyl)benzamide] | 10 to 50 µM | 10 to 50 µM | – | –
12 | COc1nn(C)c(C)c1CNC(=O)c1cc(Cl)c(Oc2cccc(-c3ccnnc3)c2C#N)cc1C [compound 17, 5-chloro-4-(2-cyano-3-(pyridazin-4-yl)phenoxy)-N-((3-methoxy-1,5-dimethyl-1H-pyrazol-4-yl)methyl)-2-methylbenzamide] | > 50 µM | > 50 µM | – | –
13 | Cc1cc(Oc2cccc(-c3ccnnc3)c2C#N)c(Cl)cc1C(=O)NCc1c(C)n(C)[nH]c1=O [compound 18, 5-chloro-4-(2-cyano-3-(pyridazin-4-yl)phenoxy)-N-((1,5-dimethyl-3-oxo-2,3-dihydro-1H-pyrazol-4-yl)methyl)-2-methylbenzamide] | 1 to 10 µM | 1 to 10 µM | – | –
14 | COc1nn(C)c(C)c1CNC(=O)c1c(C)n(C(C)C2CCOCC2)c2ccccc12 (stereo not drawn) [compound 22, N-((3-methoxy-1,5-dimethyl-1H-pyrazol-4-yl)methyl)-2-methyl-1-(1-(tetrahydro-2H-pyran-4-yl)ethyl)-1H-indole-3-carboxamide] | – | – | > 50 µM | > 50 µM
15 | Cc1c(CNC(=O)c2c(C)n(C(C)C3CCOCC3)c3ccccc23)c(=O)[nH]n1C (stereo not drawn) [compound 23, N-((1,5-dimethyl-3-oxo-2,3-dihydro-1H-pyrazol-4-yl)methyl)-2-methyl-1-(1-(tetrahydro-2H-pyran-4-yl)ethyl)-1H-indole-3-carboxamide] | – | – | 10 to 50 µM | > 50 µM
16 | CCC(C)n1cc(C)c2c(C(=O)NCc3c(OC)nn(C)c3C)cc(-c3ccc(N4CCNCC4)nc3)cc21 (stereo not drawn) [compound 27, 1-(sec-butyl)-N-((3-methoxy-1,5-dimethyl-1H-pyrazol-4-yl)methyl)-3-methyl-6-(6-(piperazin-1-yl)pyridin-3-yl)-1H-indole-4-carboxamide] | 0.1 to 1 µM | 1 to 10 µM | – | –
17 | CCC(C)n1cc(C)c2c(C(=O)NCc3c(C)n(C)[nH]c3=O)cc(-c3ccc(N4CCNCC4)nc3)cc21 (stereo not drawn) [compound 28, 1-(sec-butyl)-N-((1,5-dimethyl-3-oxo-2,3-dihydro-1H-pyrazol-4-yl)methyl)-3-methyl-6-(6-(piperazin-1-yl)pyridin-3-yl)-1H-indole-4-carboxamide] | 1 to 10 µM | 10 to 50 µM | – | –
18 | CCC(C)n1cc(C)c2c(C(=O)NCc3c(OC)nn(CC)c3C)cc(-c3ccc(N4CCNCC4)nc3)cc21 (stereo not drawn) [compound 29, 1-(sec-butyl)-N-((1-ethyl-3-methoxy-5-methyl-1H-pyrazol-4-yl)methyl)-3-methyl-6-(6-(piperazin-1-yl)pyridin-3-yl)-1H-indole-4-carboxamide] | 1 to 10 µM | 1 to 10 µM | – | –
19 | CCN(c1cc(Cl)cc(C(=O)NC2CC(C)(C)NC(C)(C)C2)c1C)[C@H]1CC[C@H](N(C)C)CC1 [compound 31, 5-chloro-3-(((trans)-4-(dimethylamino)cyclohexyl)(ethyl)amino)-2-methyl-N-(2,2,6,6-tetramethylpiperidin-4-yl)benzamide] | > 50 µM | > 50 µM | – | –
20 | CCN(c1cc(Cl)cc(C(=O)NC2CC(C)(C)NC(C)(C)C2)c1C)[C@H]1CC[C@H](N(C)CCOC)CC1 [compound 32, 5-chloro-3-(ethyl((trans)-4-((2-methoxyethyl)-(methyl)-amino)-cyclohexyl)amino)-2-methyl-N-(2,2,6,6-tetramethylpiperidin-4-yl)benzamide] | > 50 µM | > 50 µM | – | –
21 | CCN(c1cc(-c2ccc(OCCOC)cc2)cc(C(=O)NC2CC(C)(C)NC(C)(C)C2)c1C)C1CCOCC1 [compound 34, 5-(ethyl(tetrahydro-2H-pyran-4-yl)amino)-4′-(2-methoxyethoxy)-4-methyl-N-(2,2,6,6-tetramethylpiperidin-4-yl)-[1,1′-biphenyl]-3-carboxamide] | > 50 µM | > 50 µM | – | –
